Data as given in ChEMBL document CHEMBL1156608, “Synthesis of stable and selective inhibitors of human galectins-1 and -3” (Bioorg Med Chem, 2008).

What was measured:
Galectin-1 [1] = biological target: T1, Galectin-1 (Homo sapiens, UniProt P09382); assay: Inhibition of recombinant galectin 1 in human O type red blood cells by hemagglutinination assay relative to galactose
Galectin-3 [2] = biological target: T2, Galectin-3 (Homo sapiens, UniProt P17931); assay: Inhibition of recombinant galectin 3 in human O type red blood cells by hemagglutinination assay relative to lactose
T2 sequence (P17931 whole entry): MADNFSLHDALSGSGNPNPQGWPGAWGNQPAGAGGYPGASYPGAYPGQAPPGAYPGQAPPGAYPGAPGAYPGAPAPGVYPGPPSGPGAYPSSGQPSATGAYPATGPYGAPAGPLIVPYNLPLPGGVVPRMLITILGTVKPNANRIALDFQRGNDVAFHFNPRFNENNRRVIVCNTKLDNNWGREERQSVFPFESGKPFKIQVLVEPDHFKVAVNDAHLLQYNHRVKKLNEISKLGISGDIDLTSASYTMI

Galectin-1 [3] = biological target: T1, Galectin-1; assay: Inhibition of recombinant galectin 1 in human O type red blood cells by hemagglutinination assay relative to lactose
Galectin-3 [4] = biological target: T2, Galectin-3; assay: Inhibition of recombinant galectin 3 in human O type red blood cells by hemagglutinination assay relative to galactose
Galectin-3 [5] = biological target: T2, Galectin-3; assay: Binding affinity to galectin 3
Galectin-1 [6] = biological target: T1, Galectin-1; assay: Binding affinity to galectin 1
Galectin-3 [7] = biological target: T2, Galectin-3; assay: Inhibition of galectin 3

T1 sequence (P09382 whole entry): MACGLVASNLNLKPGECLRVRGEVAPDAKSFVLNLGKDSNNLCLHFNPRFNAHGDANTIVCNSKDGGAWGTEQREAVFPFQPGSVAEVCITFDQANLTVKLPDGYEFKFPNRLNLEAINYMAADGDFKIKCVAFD

| Activity (Galectin-1 [1]) | Activity (Galectin-3 [4]) | Molecule | other results |
| --- | --- | --- | --- |
| 2.6 | 5 | OC[C@@H]1O[C@H](O[C@@H]2[C@@H](O)[C@H](O)[C@@H](SCC#CC#CCS[C@@H]3O[C@H](CO)[C@@H](O[C@@H]4O[C@H](CO)[C@H](O)[C@H](O)[C@H]4O)[C@H](O)[C@H]3O)O[C@H]2CO)[C@@H](O)[C@H](O)[C@@H]1O | Activity (Galectin-3 [2]): 2.5; Activity (Galectin-1 [3]): 1.3 |
| – | – | CO[C@@H]1O[C@H](CO)[C@@H](O[C@@H]2O[C@H](CO)[C@H](O)[C@H](O)[C@H]2O)[C@H](O)[C@H]1O | Activity (Galectin-3 [5]): 220 µM |
| – | – | COC(=O)Cn1cc(C[C@@H]2O[C@H](CO)[C@H](O)[C@H](O)[C@H]2O)nn1 [TRIAZOLYL GALACTOSIDE] | Kd (Galectin-1 [6]): 5000 µM |
| 10 | 10 | COC(=O)/C=C/C[C@@H]1O[C@H](CO)[C@H](O)[C@H](O)[C@H]1O | – |
| 2.6 | 5 | OC[C@@H]1O[C@H](O[C@@H]2[C@@H](O)[C@H](O)[C@@H](n3cc(CS[C@@H]4O[C@H](CO)[C@@H](O[C@@H]5O[C@H](CO)[C@H](O)[C@H](O)[C@H]5O)[C@H](O)[C@H]4O)nn3)O[C@H]2CO)[C@@H](O)[C@H](O)[C@@H]1O | Activity (Galectin-3 [2]): 2.5; Activity (Galectin-1 [3]): 1.3 |
| < 10 | 20 | OC[C@@H]1O[C@H](n2cc(CS[C@@H]3O[C@H](CO)[C@H](O)[C@H](O)[C@H]3O)nn2)[C@@H](O)[C@H](O)[C@@H]1O | Activity (Galectin-3 [2]): 10 |
| – | – | CO[C@@H]1O[C@H](CO)[C@@H](O[C@@H]2O[C@H](CO)[C@H](O)[C@H](O)[C@H]2O)[C@H](O)[C@H]1NC(C)=O | Activity (Galectin-3 [5]): 67 µM |
| < 10 | < 10 | OC[C@H]1O[C@@H](C/C=C/c2ccccc2)[C@H](O)[C@@H](O)[C@H]1O | – |
| – | – | O=S(=O)(c1ccc2ccccc2c1)[C@@H]1O[C@H](CO)[C@@H](O[C@@H]2O[C@H](CO)[C@H](O)[C@H](O)[C@H]2O)[C@H](O)[C@H]1O | Kd (Galectin-1 [6]): 40 µM; Kd (Galectin-3 [5]): 313 µM |
| < 10 | 20 | C#CCS[C@@H]1O[C@H](CO)[C@H](O)[C@H](O)[C@H]1O | – |
| 10 | < 10 | OC[C@H]1O[C@@H](C/C=C/c2cccc(/C=C/C[C@@H]3O[C@H](CO)[C@H](O)[C@H](O)[C@H]3O)c2)[C@H](O)[C@@H](O)[C@H]1O | Activity (Galectin-1 [3]): 5 |
| – | – | CO[C@@H]1O[C@H](CO)[C@@H](O[C@@H]2O[C@H](CO)[C@H](O)[C@H](NC(=O)c3cc4ccccc4cc3C(=O)O)[C@H]2O)[C@H](O)[C@H]1NC(C)=O | Kd (Galectin-3 [5]): 0.3 µM |
| 1.3 | 2.6 | OC[C@@H]1O[C@H](n2cc(CS[C@@H]3O[C@H](CO)[C@@H](O[C@@H]4O[C@H](CO)[C@H](O)[C@H](O)[C@H]4O)[C@H](O)[C@H]3O)nn2)[C@@H](O)[C@H](O)[C@@H]1O | Activity (Galectin-3 [2]): 1.3; Activity (Galectin-1 [3]): 0.7 |
| 160 | < 10 | COC(=O)/C=C(\C[C@@H]1O[C@H](CO)[C@H](O)[C@H](O)[C@H]1O)c1ccccc1 | – |
| < 10 | 10 | C=C(C[C@@H]1O[C@H](CO)[C@H](O)[C@H](O)[C@H]1O)c1ccc(OC)cc1 | – |
| 1 | 1 | LACTOSE, ANHYDROUS | – |
| < 10 | < 10 | C/C=C/[C@@H]1O[C@H](CO)[C@H](O)[C@H](O)[C@H]1O | – |
| 1.3 | 2.6 | C#CCS[C@@H]1O[C@H](CO)[C@@H](O[C@@H]2O[C@H](CO)[C@H](O)[C@H](O)[C@H]2O)[C@H](O)[C@H]1O | – |
| – | – | O=C(N[C@@H]1[C@H](O)[C@H](CO)O[C@H](S[C@@H]2O[C@H](CO)[C@H](O)[C@H](NC(=O)c3ccc([N+](=O)[O-])cc3)[C@H]2O)[C@H]1O)c1ccc([N+](=O)[O-])cc1 | Kd (Galectin-3 [5]): 0.033 µM |
| 10 | < 10 | OC[C@@H]1O[C@H](SCC#CC#CCS[C@@H]2O[C@H](CO)[C@H](O)[C@H](O)[C@H]2O)[C@@H](O)[C@@H](O)[C@@H]1O | Activity (Galectin-1 [3]): 5 |
| 2.6 | 1.3 | OC[C@@H]1O[C@H](O[C@@H]2[C@@H](O)[C@H](O)[C@@H](n3cc(CS[C@@H]4O[C@H](CO)[C@H](O)[C@H](O)[C@H]4O)nn3)O[C@H]2CO)[C@@H](O)[C@H](O)[C@@H]1O | Activity (Galectin-3 [2]): 0.7; Activity (Galectin-1 [3]): 1.3 |
| 10 | < 10 | C=C(C[C@@H]1O[C@H](CO)[C@H](O)[C@H](O)[C@H]1O)c1cccc([N+](=O)[O-])c1 | – |
| 20 | < 10 | OC[C@@H]1O[C@H](SCC#Cc2ccc(C#CCS[C@@H]3O[C@H](CO)C(O)[C@H](O)[C@H]3O)cc2)[C@@H](O)[C@H](O)[C@@H]1O (single isomer, unassigned) | Activity (Galectin-1 [3]): 10 |
| – | – | OC[C@@H]1O[C@H](O[C@@H]2[C@@H](O)[C@H](O)[C@@H](OCCCCCCO[C@@H]3O[C@H](CO)[C@@H](O[C@@H]4O[C@H](CO)[C@H](O)[C@H](O)[C@H]4O)[C@H](O)[C@H]3O)O[C@H]2CO)[C@@H](O)[C@H](O)[C@@H]1O | IC50 (Galectin-3 [7]): 163 µM |
| < 10 | 10 | CC(=O)C[C@@H]1O[C@H](CO)[C@H](O)[C@H](O)[C@H]1O | – |
| 1 | 1 | O=C[C@H](O)[C@@H](O)[C@@H](O)[C@H](O)CO | – |
